What was measured:
Ba/F3 EGFR-Del19/T790M = Ba/F3 EGFR-Del19/T790M (Homo sapiens, UniProt P00533, T790M, cells depend on it, form not given); assay: Ba/F3 viability assay (CellTiter-Glo), EGFR-Del19/T790M (DT); format: cell-based; details: Ba/F3 EGFR-Del19/T790M anti-proliferation; read-out: BAF3 DT IC50
Excerpt: (§1) Inhibition of cell proliferation can be studied using Ba/F3 viability assays, including the Promega CellTiter-Glo cell viability assay. This assay can be used to study the effect of compounds described herein in the following assays: (1) Ba/F3 Parental; (2) Ba/F3 EGFR-Del19/T790M; (3); Ba/F3 EGFR-Del19/C797S; and (4) Ba/F3 EGFR-Del119/T790M/C797S.
(§2) One hundred thirty six compounds were studied using the kinase (EGFR) and BA/F3 assays described herein, with more than 60% of the tested compounds providing IC50<50 nM values in all six assays. Accordingly, compounds of the invention are a new general class of kinase inhibitors, including potent inhibitors of EGFR mutants.
(§3) Exemplary kinase inhibition (Kinase) and anti-proliferation activity (Ba/F3) data are shown in Table 1 for certain compounds of the invention and are categorized according to the below legend.

EGFR^L858R = EGFR^L858R (Homo sapiens, UniProt P00533, L858R); assay: HTRF KinEASE-TK in vitro kinase assay, EGFR L858R (L); format: biochemical; details: EGFR L858R kinase inhibition
Excerpt: (§4) The biological activity of compounds described herein can be studied according to standard methods known in the art. Methods can be used to study inhibition of EGFR, including mutant forms of EGFR comprising L858R, T790M, C797S, and/or Del19 mutations, or any combination thereof (e.g., L858R single, double, or triple mutants). Exemplary, non-limiting methods are described herein.
(§5) Assays using an in vitro kinase assay kit (HTRF KinEASE-TK kit) can be used to study the inhibitory activity of compounds described herein with respect to EGFR mutants such as ECFR^L858R, EGFR^L858R/T790M, and EGFR^L858R/T790M/C797S.
as §2, §3

EGFR^L858R/T790M/C797S = EGFR^L858R/T790M/C797S (Homo sapiens, UniProt P00533, C797S/L858R/T790M); assay: HTRF KinEASE-TK in vitro kinase assay, EGFR L858R/T790M/C797S (LTC); format: biochemical; details: EGFR L858R/T790M/C797S kinase inhibition
Excerpt: as §4, §5, §2, §3

EGFR^L858R/T790M = EGFR^L858R/T790M (Homo sapiens, UniProt P00533, L858R/T790M); assay: HTRF KinEASE-TK in vitro kinase assay, EGFR L858R/T790M (LT); format: biochemical; details: EGFR L858R/T790M kinase inhibition
Excerpt: as §4, §5, §2, §3

[1] = target: Ba/F3 EGFR-Del19/T790M/C797S (Homo sapiens, UniProt P00533, T790M/C797S, cells depend on it, form not given); assay: Ba/F3 viability assay (CellTiter-Glo), EGFR-Del19/T790M/C797S (DTC); format: cell-based; details: Ba/F3 EGFR-Del19/T790M/C797S anti-proliferation; read-out: BAF3 DTC IC50
Excerpt: as §1, §2, §3

Ba/F3 EGFR-Del19/C797S = Ba/F3 EGFR-Del19/C797S (Homo sapiens, UniProt P00533, C797S, cells depend on it, form not given); assay: Ba/F3 viability assay (CellTiter-Glo), EGFR-Del19/C797S (DC); format: cell-based; details: Ba/F3 EGFR-Del19/C797S anti-proliferation; read-out: BAF3 DC IC50
Excerpt: as §1, §2, §3

Sequence of Ba/F3 EGFR-Del19/C797S (P00533 with tags, fused parts or gaps DEL746-750/C797S, form open): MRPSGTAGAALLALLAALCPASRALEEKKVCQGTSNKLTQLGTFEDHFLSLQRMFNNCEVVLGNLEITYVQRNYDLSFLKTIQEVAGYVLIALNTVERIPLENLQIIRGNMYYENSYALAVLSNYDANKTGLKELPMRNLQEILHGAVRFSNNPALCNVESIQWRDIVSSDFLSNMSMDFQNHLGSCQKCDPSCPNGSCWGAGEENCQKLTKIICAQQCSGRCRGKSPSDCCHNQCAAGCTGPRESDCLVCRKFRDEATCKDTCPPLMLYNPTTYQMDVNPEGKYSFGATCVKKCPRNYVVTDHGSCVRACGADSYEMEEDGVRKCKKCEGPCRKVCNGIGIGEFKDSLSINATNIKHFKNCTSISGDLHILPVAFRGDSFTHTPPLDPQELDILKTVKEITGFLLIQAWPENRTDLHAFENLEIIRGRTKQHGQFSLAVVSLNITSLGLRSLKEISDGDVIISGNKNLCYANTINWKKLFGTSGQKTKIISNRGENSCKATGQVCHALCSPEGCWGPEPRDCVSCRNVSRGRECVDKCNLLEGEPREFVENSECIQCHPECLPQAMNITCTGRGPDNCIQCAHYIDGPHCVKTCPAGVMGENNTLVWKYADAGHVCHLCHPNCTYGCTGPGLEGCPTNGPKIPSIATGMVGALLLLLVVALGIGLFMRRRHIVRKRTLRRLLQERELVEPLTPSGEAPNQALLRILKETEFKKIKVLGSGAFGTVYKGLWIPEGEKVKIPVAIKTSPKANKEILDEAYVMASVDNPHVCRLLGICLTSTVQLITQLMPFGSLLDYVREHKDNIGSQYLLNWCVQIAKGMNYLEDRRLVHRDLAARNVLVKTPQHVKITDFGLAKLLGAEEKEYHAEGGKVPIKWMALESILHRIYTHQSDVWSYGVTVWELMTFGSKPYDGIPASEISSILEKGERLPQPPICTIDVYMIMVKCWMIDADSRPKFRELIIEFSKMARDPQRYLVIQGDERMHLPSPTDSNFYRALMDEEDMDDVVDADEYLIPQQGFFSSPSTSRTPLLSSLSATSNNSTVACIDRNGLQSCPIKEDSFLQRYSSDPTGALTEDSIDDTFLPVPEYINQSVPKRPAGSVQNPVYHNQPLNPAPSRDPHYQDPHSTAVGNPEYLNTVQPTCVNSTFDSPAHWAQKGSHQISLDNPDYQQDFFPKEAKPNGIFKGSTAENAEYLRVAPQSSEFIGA
Sequence of Ba/F3 EGFR-Del19/T790M (P00533 with tags, fused parts or gaps DEL746-750/T790M, form open): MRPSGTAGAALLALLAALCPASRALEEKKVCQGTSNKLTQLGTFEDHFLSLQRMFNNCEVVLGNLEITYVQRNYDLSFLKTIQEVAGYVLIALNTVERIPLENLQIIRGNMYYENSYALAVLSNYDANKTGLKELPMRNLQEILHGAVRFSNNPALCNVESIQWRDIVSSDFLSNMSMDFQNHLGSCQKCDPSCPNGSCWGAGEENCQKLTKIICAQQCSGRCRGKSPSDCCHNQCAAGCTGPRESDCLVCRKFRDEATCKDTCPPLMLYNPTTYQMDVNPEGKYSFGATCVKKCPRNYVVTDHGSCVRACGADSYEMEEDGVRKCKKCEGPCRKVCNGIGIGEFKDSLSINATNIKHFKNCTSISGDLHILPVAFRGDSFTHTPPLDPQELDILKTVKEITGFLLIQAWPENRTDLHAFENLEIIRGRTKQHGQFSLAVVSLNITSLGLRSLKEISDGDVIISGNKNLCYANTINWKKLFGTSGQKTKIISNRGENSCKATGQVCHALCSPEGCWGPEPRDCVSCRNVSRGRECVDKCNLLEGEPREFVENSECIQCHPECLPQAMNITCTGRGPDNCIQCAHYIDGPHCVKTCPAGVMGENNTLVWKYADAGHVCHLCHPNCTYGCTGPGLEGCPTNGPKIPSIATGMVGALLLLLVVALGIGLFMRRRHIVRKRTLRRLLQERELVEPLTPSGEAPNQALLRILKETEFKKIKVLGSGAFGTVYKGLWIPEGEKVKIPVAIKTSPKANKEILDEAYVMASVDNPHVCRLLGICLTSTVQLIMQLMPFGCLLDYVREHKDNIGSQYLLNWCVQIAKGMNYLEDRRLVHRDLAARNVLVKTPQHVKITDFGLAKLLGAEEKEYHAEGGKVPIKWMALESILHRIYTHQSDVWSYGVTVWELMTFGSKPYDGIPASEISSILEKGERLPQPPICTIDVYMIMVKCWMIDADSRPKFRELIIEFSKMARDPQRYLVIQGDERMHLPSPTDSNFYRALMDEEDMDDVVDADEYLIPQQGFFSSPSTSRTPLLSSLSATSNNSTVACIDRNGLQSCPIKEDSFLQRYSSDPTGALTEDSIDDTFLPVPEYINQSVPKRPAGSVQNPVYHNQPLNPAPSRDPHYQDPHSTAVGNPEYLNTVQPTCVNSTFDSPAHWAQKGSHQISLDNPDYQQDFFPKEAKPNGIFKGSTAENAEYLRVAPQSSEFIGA
Sequence of EGFR^L858R (P00533 25-1210 L858R): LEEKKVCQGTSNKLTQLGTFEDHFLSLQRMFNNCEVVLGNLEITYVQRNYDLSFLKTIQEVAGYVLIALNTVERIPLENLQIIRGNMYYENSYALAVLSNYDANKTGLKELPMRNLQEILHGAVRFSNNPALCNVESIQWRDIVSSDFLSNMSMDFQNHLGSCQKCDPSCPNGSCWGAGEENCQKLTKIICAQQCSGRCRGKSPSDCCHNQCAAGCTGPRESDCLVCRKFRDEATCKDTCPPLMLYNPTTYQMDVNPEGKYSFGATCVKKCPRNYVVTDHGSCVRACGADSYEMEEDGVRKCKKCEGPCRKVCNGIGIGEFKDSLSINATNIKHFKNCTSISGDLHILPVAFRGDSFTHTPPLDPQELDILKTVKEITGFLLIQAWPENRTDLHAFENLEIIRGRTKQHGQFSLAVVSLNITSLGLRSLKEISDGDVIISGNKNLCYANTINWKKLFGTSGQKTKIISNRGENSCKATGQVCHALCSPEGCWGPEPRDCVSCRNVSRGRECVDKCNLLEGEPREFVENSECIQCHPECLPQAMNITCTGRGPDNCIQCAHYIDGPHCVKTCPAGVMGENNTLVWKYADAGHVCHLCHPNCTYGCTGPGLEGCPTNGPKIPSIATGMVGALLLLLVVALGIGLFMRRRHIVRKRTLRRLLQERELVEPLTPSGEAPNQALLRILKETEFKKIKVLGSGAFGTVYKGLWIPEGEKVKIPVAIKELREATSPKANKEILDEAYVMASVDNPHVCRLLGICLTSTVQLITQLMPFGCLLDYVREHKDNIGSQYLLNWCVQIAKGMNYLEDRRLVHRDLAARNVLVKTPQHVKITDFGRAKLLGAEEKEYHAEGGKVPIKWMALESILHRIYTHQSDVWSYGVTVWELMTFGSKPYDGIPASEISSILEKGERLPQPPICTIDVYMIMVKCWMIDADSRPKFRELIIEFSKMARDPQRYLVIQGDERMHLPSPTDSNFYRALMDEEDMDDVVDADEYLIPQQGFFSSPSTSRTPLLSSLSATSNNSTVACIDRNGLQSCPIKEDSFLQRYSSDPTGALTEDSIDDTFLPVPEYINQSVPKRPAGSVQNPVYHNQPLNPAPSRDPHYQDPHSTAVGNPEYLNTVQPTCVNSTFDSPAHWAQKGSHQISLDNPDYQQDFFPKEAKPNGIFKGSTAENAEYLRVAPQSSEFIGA
Sequence of Ba/F3 EGFR-Del19/T790M/C797S (P00533 with tags, fused parts or gaps DEL746-750/T790M/C797S, form open): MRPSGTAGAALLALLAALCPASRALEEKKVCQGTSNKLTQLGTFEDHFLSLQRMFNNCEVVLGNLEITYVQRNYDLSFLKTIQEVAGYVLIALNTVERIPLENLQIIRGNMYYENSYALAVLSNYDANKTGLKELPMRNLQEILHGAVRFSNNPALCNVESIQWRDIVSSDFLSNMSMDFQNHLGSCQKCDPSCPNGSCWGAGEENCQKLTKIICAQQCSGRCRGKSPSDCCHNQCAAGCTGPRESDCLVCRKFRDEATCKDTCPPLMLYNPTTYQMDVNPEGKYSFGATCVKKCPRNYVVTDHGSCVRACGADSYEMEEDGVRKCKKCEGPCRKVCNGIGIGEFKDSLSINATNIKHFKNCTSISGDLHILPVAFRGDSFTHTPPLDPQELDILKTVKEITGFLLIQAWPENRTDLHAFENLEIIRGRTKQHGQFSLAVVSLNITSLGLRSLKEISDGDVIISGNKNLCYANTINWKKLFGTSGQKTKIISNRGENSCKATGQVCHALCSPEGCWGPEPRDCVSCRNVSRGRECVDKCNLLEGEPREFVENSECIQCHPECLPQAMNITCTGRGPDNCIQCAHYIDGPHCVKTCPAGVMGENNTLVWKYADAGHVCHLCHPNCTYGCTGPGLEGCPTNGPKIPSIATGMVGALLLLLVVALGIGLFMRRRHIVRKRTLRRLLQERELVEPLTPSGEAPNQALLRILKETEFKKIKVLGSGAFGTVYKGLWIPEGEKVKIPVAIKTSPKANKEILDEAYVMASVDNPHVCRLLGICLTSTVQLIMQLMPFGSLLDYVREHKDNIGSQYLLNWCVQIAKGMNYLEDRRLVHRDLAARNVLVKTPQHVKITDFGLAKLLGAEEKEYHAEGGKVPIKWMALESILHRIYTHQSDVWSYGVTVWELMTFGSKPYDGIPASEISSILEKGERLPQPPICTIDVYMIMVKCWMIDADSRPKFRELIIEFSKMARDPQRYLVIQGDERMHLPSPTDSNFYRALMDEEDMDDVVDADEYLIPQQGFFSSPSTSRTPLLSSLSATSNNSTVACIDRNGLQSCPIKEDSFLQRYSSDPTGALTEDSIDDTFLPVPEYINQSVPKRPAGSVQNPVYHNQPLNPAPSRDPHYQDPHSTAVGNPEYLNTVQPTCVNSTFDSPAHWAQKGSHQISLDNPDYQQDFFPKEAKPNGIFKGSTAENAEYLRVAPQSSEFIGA

| IC50 (EGFR^L858R) | IC50 (EGFR^L858R/T790M/C797S) | IC50 (EGFR^L858R/T790M) | Compound | GI50 (Ba/F3 EGFR-Del19/T790M) | GI50 [1] | GI50 (Ba/F3 EGFR-Del19/C797S) |
| --- | --- | --- | --- | --- | --- | --- |
| < 50 nM | < 50 nM | < 50 nM | CC(C)n1cc(-c2cnc3cc2O[C@@H](C)CCOc2c(cnn2C)-c2nccc(n2)N3)c(OCC(F)F)n1 [(15)] | < 50 nM | < 50 nM | < 50 nM |
| < 50 nM | < 50 nM | < 50 nM | CCOc1nn(C2CCN(C)CC2F)cc1-c1cnc2cc1O[C@@H](C)CCOc1c(cnn1C)-c1nccc(n1)N2 (stereo partly drawn) [(16)] | < 50 nM | < 50 nM | < 50 nM |
| < 50 nM | < 50 nM | < 50 nM | CCOc1nn(C2CC2)cc1-c1cnc2cc1O[C@@H](C)CCOc1c(cnn1C)-c1nccc(n1)N2 [(18)] | < 50 nM | < 50 nM | < 50 nM |
| < 50 nM | < 50 nM | < 50 nM | CCOc1nn(C2CC2CN2CCOCC2)cc1-c1cnc2cc1O[C@@H](C)CCOc1c(cnn1C)-c1nccc(n1)N2 (stereo partly drawn) [(20)] | < 50 nM | < 50 nM | < 50 nM |
| < 50 nM | < 50 nM | < 50 nM | CCOc1nn(CC(F)F)cc1-c1cnc2cc1O[C@@H](C)CCOc1c(cnn1C)-c1nccc(n1)N2 [(29)] | < 50 nM | < 50 nM | < 50 nM |
| < 50 nM | < 50 nM | < 50 nM | CCOc1nn(C2CC3CCC(C2)O3)cc1-c1cnc2cc1O[C@@H](C)CCOc1c(cnn1C)-c1nccc(n1)N2 (stereo partly drawn) [(30)] | < 50 nM | < 50 nM | < 50 nM |
| < 50 nM | < 50 nM | < 50 nM | C[C@H]1CCOc2c(cnn2C)-c2nccc(n2)Nc2cc(c(-c3cn(C4CC4)nc3OCC(F)(F)F)cn2)O1 [(32)] | < 50 nM | < 50 nM | < 50 nM |
| < 50 nM | < 50 nM | < 50 nM | CCOc1nn(C2CC(C)(C)OC(C)(C)C2)cc1-c1cnc2cc1O[C@@H](C)CCOc1c(cnn1C)-c1nccc(n1)N2 [(33)] | 50 to 100 nM | < 50 nM | 50 to 100 nM |
| < 50 nM | < 50 nM | < 50 nM | CCOc1nn(-c2ccncc2)cc1-c1cnc2cc1O[C@@H](C)CCOc1c(cnn1C)-c1nccc(n1)N2 [(34)] | 50 to 100 nM | < 50 nM | < 50 nM |
| ≥ 1000 nM | 100 to 1000 nM | < 50 nM | CCOc1ncc(C)cc1-c1cnc2cc1O[C@@H](C)CCOc1c(cnn1C)-c1nccc(n1)N2 [(35)] | 100 to 1000 nM | 100 to 1000 nM | ≥ 1000 nM |
| < 50 nM | < 50 nM | < 50 nM | C[C@H]1CCOc2c(cnn2C)-c2nccc(n2)Nc2cc(c(-c3cn(C4CN(C5COC5)C4)nc3OCCF)cn2)O1 [(36)] | < 50 nM | < 50 nM | < 50 nM |
| < 50 nM | < 50 nM | < 50 nM | CCOc1nn(C2CC3CCC(C2)N3C)cc1-c1cnc2cc1O[C@@H](C)CCOc1c(cnn1C)-c1nccc(n1)N2 (stereo partly drawn) [(37)] | < 50 nM | < 50 nM | < 50 nM |
| < 50 nM | < 50 nM | < 50 nM | CCOc1nn(C2CCN(C3COC3)CC2)cc1-c1cnc2cc1O[C@@H](C)CCOc1c(cnn1C)-c1nccc(n1)N2 [(40)] | < 50 nM | < 50 nM | < 50 nM |
| < 50 nM | < 50 nM | < 50 nM | CCCOc1nn(C2CC2)cc1-c1cnc2cc1O[C@@H](C)CCOc1c(cnn1C)-c1nccc(n1)N2 [(42)] | < 50 nM | < 50 nM | < 50 nM |
| < 50 nM | < 50 nM | < 50 nM | C[C@H]1CCOc2c(cnn2C)-c2nccc(n2)Nc2cc(c(-c3cn(C4CC4)nc3OCCF)cn2)O1 [(43)] | < 50 nM | < 50 nM | < 50 nM |
| < 50 nM | < 50 nM | < 50 nM | C[C@H]1CCOc2c(cnn2C)-c2nccc(n2)Nc2cc(c(-c3cn(C)cc3OCC(F)(F)F)cn2)O1 [(48), (10S)-5,10-dimethyl-13-[1-methyl-4-(2,2,2-trifluoroethoxy)pyrrol-3-yl]-7,11-dioxa-4,5,15,17,21,22-hexazatetracyclo[16.3.1.1^12,16.0^2,6]tricosa-1(22),2(6),3,12(23),13,15,18,20-octaene] | < 50 nM | < 50 nM | < 50 nM |
| < 50 nM | < 50 nM | < 50 nM | C[C@H]1CCOc2c(cnn2C)-c2nccc(n2)Nc2cc(c(-c3cn(CCN4CCCC4)nc3OCC(F)(F)F)cn2)O1 [(56)] | < 50 nM | < 50 nM | < 50 nM |
| < 50 nM | < 50 nM | < 50 nM | CCOC(=O)CN1CCC(n2cc(-c3cnc4cc3O[C@@H](C)CCOc3c(cnn3C)-c3nccc(n3)N4)c(OCC)n2)CC1 [(62)] | < 50 nM | < 50 nM | < 50 nM |
| < 50 nM | < 50 nM | < 50 nM | C[C@H]1CCOc2c(cnn2C)-c2nccc(n2)Nc2cc(c(Nc3ccn(C)n3)cn2)O1 [(70)] | < 50 nM | < 50 nM | < 50 nM |
| ≥ 1000 nM | 100 to 1000 nM | 100 to 1000 nM | C[C@H]1CCOc2c(cnn2C)-c2nccc(n2)Nc2cc(c(-c3cc4ccccc4n3C)cn2)O1 [(74)] | 100 to 1000 nM | 100 to 1000 nM | ≥ 1000 nM |
| 50 to 100 nM | < 50 nM | < 50 nM | C[C@H]1CCOc2c(cnn2C)-c2nccc(n2)Nc2cc(c(-c3ccc4c(ccn4C)c3)cn2)O1 [(75)] | 50 to 100 nM | < 50 nM | 100 to 1000 nM |
| < 50 nM | < 50 nM | < 50 nM | C[C@H]1CCOc2c(cnn2C)-c2nccc(n2)Nc2cc(c(-c3cnc(N4CCN(C)CC4)n3C)cn2)O1 [(77)] | 50 to 100 nM | < 50 nM | 100 to 1000 nM |
| < 50 nM | < 50 nM | < 50 nM | Cc1c(-c2cnc3cc2O[C@@H](C)CCOc2c(cnn2C)-c2nccc(n2)N3)cnn1C1CCN(CCCF)CC1 [(84)] | < 50 nM | < 50 nM | < 50 nM |
| < 50 nM | < 50 nM | < 50 nM | Cc1nn(C2CCN(CCF)CC2)cc1-c1cnc2cc1O[C@@H](C)CCOc1c(cnn1C)-c1nccc(n1)N2 [(85)] | < 50 nM | < 50 nM | < 50 nM |
| ≥ 1000 nM | 100 to 1000 nM | < 50 nM | C[C@H]1CCOc2c(cnn2C)-c2nccc(n2)Nc2cc(c(-c3ccnn3CCN3CCOCC3)cn2)O1 [(89)] | ≥ 1000 nM | ≥ 1000 nM | ≥ 1000 nM |
| < 50 nM | < 50 nM | < 50 nM | C[C@H]1CCOc2c(cnn2C)-c2nccc(n2)Nc2cc(c(-c3ncc(CN4CCN(C)CC4)s3)cn2)O1 [(92)] | < 50 nM | < 50 nM | < 50 nM |
| 100 to 1000 nM | < 50 nM | < 50 nM | C[C@H]1CCOc2c(cnn2C)-c2nccc(n2)Nc2cc(c(-c3ccc(CN4CCN(C)CC4)n3C)cn2)O1 [(103)] | 100 to 1000 nM | 100 to 1000 nM | 100 to 1000 nM |
| < 50 nM | < 50 nM | < 50 nM | C[C@H]1CCOc2c(cnn2C)-c2nccc(n2)Nc2cc(c(-c3ncc(CN4CCOCC4)s3)cn2)O1 [(115)] | < 50 nM | < 50 nM | < 50 nM |
| < 50 nM | < 50 nM | < 50 nM | C[C@H]1CCOc2c(cnn2C)-c2nccc(n2)Nc2cc(c(-c3cnn(CCCN(C)C)c3)cn2)O1 [(123)] | < 50 nM | < 50 nM | < 50 nM |
| < 50 nM | < 50 nM | < 50 nM | C[C@H]1CCOc2c(cnn2C)-c2nccc(n2)Nc2cc(c(-c3ccc(CN4CCOCC4)cc3)cn2)O1 [(124)] | < 50 nM | < 50 nM | < 50 nM |

Reference: patent US20240150375A1, “MACROCYCLIC COMPOUNDS AND USES THEREOF” (Theseus Pharmaceuticals, Inc., priority 2021, published 2024)
